Experimental data: patent publication US20010048926A1, “SYNTHETIC PEPTIDE VACCINES FOR DENTAL CARIES” (priority 1992, published 2001)

How the values were obtained:
[1] = system: inducing peptide construct; experiment: ELISA of serum IgG antibody to the inducing (homologous) peptide construct in immunized rats; type: in vivo, Sprague Dawley rats; settings: for IgG antibody levels to GGY: pre-infection sera
Method: (§1) Immunogenicity of Peptides: Sprague Dawley CD strain 43 day-old male rats (Charles River Laboratories) were used for injection. Six groups of 4-5 rats were injected subcutaneously in the vicinity of the salivary glands with 50 μg each of GGY, AND, SAND or CAT peptide constructs, 10 μg of GTF, or sham-immunized with buffer alone. The initial injection included complete Freund adjuvant (CFA; Difco); two subsequent injections at 21-day intervals included incomplete Freund adjuvant. Animals were bled prior to injection and 14-21 days after each injection. Serum from coagulated and centrifuged blood was stored frozen at −20° C. until use.
(§2) ELISA: Serum IgG and salivary IgA antibodies were tested by enzyme-linked immunosorbent assay (ELISA). Polystyrene microtiter plates (Flow Laboratories) were coated with […] of each peptide construct or 0.5 μg of S. sobrinus GTF. Antibody activity was then measured by incubation with 1:100 to 1:10^6 dilutions of sera, or 1:4 to 1:32 dilutions of saliva. Plates were then developed for IgG antibody rabbit anti-rat IgG followed in sequence by alkaline phosphatase goat anti-rabbit IgG (Biosource Inc.) and p-nitrophenylphosphate (Sigma). A mouse monoclonal reagent to rat α chain (Zymed, South San Francisco, Calif.) was used with biotinylated goat anti-mouse IgG (TAGO, Inc., Burlingame, Calif.) and avidin-alkaline phosphatase (Cappel) to reveal levels of salivary IgA antibody to peptides. Reactivity was recorded as absorbance (A405 nm) in a micro plate reader (Biotek Instruments). Data are reported as absorbance (A405 nm), reciprocal titer, or as ELISA units (EU) which were calculated relative to the levels of appropriate reference sera or salivas from Sprague Dawley rats thrice immunized with the respective peptide construct. Dilutions of 1:12,800 and 1:6,400 (A405 nm approximately 1.0) were considered 100 EU for serum IgG to the GGY and AND constructs, respectively. Dilutions of 1:32 were considered 100 EU for salivary IgA to both GGY and AND constructs.
(§3) Two experiments were performed. Groups (n=11-12) of 23-26 day-old rats were subcutaneously (sc) injected in the salivary gland vicinity with (experiment 1) GGY (50 μg), AND (50 μg) or GTF(10 μg), or phosphate buffered saline (control animals), or (experiment 2) GGY (50 ;μg) or PBS. Each antigen was incorporated with complete Freund adjuvant in both experiments. Eight (experiment 1) or 14 (experiment 2) days later, rats were reinjected with PBS or with the same antigen and dose in incomplete Freund adjuvant. Six (experiment 1) or 12 (experiment 2) days after the second injection, animals were bled from the tail vein, and saliva was collected after injection of pilocarpine (1.0 mg/100 g body weight). Fourteen (experiment 1) or 11 (experiment 2) days after the second injection, all rats were orally infected with approximately 10^8 S. mutans for 3 consecutive days. Both experiments were terminated 63 days after initial infection.
(§4) Two experiments were performed to measure the effect of immunization with the eight-branched GGY and AND peptide constructs on experimental dental caries in the Sprague-Dawley rat. In the first experiment, groups of rats were immunized with GGY or AND peptide constructs. In the second experiment groups of rats were immunized only with the GGY peptide construct. Pre-infection sera and salivas were collected for antibody measurement in 39 day old rats in experiment 1 (6 days after the second injection) and 51 day old rats in experiment 2 (12 days after the second injection). In the GGY-immunized rat groups, IgG antibody levels to GGY (experiment 1=21.9+17.8 EU; experiment 2=108.0±4.0 EU) were elevated above those of the sham-immunized groups (experiment 1=1.7±0.2 EU; experiment 2=4.0±3.0 EU) in both experiments and reached statistical significance (p<0.002) in experiment 2.

[2] = system: inducing peptide construct; experiment: ELISA of salivary IgA antibody to the inducing (homologous) peptide construct in immunized rats; type: in vivo, Sprague Dawley rats; settings: for rats with significant levels of salivary IgA antibody: GGY- and AND-injected rats counted together; for Salivary IgA antibody levels to GGY: pre-infection saliva
Method: as §1, §2, §3, §4

[3] = target: T1, CAT peptide construct (Streptococcus mutans serotype c, UniProt P08987); experiment: Cross-reactivity ELISA, plates coated with CAT peptide construct; type: binding; settings: day 63 sera; FIG. 4
T1 construct: residues 442-462 of S. mutans GTF-B; purchased Applied Diagnostics, Foster City, Calif; host or cells: chemical solid phase synthesis
T1 sequence (P08987 442-462 limits assumed): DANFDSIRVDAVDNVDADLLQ
Method: as §1
(§5) ELISA: Serum IgG and salivary IgA antibodies were tested by enzyme-linked immunosorbent assay (ELISA). Polystyrene microtiter plates (Flow Laboratories) were coated with […] of each peptide construct or 0.5 μg of S. sobrinus GTF. Antibody activity was then measured by incubation with 1:100 to 1:10^6 dilutions of sera, or 1:4 to 1:32 dilutions of saliva. […] Reactivity was recorded as absorbance (A405 nm) in a micro plate reader (Biotek Instruments). Data are reported as absorbance (A405 nm), reciprocal titer, or as ELISA units (EU) which were calculated relative to the levels of appropriate reference sera or salivas from Sprague Dawley rats thrice immunized with the respective peptide construct. […]

[4] = target: T2, AND peptide construct (Streptococcus mutans serotype c, UniProt P08987); experiment: Cross-reactivity ELISA, plates coated with AND peptide construct; type: binding; settings: day 63 sera; FIG. 4
T2 construct: GGY and AND were 19-mer peptides; purchased Applied Diagnostics, Foster City, Calif; host or cells: chemical solid phase synthesis
Method: as §1, §5

[5] = system: S. sobrinus GTF; experiment: Antibody inhibition of glucan synthesis (filter assay, 14C glucose incorporation into water-insoluble glucan); type: biochemical, S. sobrinus strain 6715
From the text: Glucosyltransferases: Glucosyltransferases (GTF) from S. sobrinus strain 6715 were purified from culture supernatants after bacterial growth in glucose-containing defined media, as described in Taubman et al. (J. Oral Pathol. 17:466-470 (1988)). Enzymes were separated from other culture supernatant proteins by affinity chromatography on Sephadex G-100 (Pharmacia Fine Chemicals), using 6M guanidine HCl as the eluting solvent. GTFs were then obtained from the guanidine HCl eluate by FPLC chromatography on Superose 6 (Pharmacia) using 6M guanidine for elution. GTF preparations contained a mixture of GTF-I, GTF-Sd, and GTF-Si.
Antibody Inhibition of Glucan Synthesis: Selected rat sera were evaluated for their ability to inhibit glucan synthesis catalyzed by S. sobrinus GTF, using a filter assay. Ten μl volumes of sera (1:100 dilutions in 0.02M sodium phosphate buffered saline and 0.02% sodium azide [PBSA], pH 6.5) were preincubated with the respective GTF for 1 hour at 37° C. in a total volume of 0.04 ml PBSA. Then 1.7 mg sucrose, 44 nCi of [^14C-glucose]-sucrose (approximately 100,000 cpm) were added in 0.2 ml PESA in the presence of 37 μg of dextran T10 (Pharmacia). Incubation proceeded for 18 hours at 37° C., after which water-insoluble glucan was collected on Whatman GF/F glass fiber filters, washed with PBSA, and radioactivity determined as described in Smith et al. (Infect. Immunity 62:5470-5476 (1994)).

## GGYEFLLANDVDNSNPVVQ
[1]; immunization began on day 43 of life, bled 21 days later (day 64 of life), immunogenicity experiment
  responding rats (serum IgG): 4/4
[1]; immunogenicity experiment, FIG. 1
  immunogenicity (percentage of animals responding and titer of responding sera): at least as high as observed for the positive control CAT peptide
[1]; immunogenicity experiment, day 21 (one injection) vs day 63 (three injections)
  effect of subsequent immunization on serum IgG titers: sufficient to induce maximal serum IgG antibody to GGY
[1]; immunogenicity experiment, rats 43 days old at start, 50 μg sc in CFA, day 21
  serum IgG antibody to the inciting antigen after the first injection: induced serum IgG antibody to the inciting antigen after the first injection in all rats
[1]; protection experiment 1, 39 day old rats, 6 days after the second injection
  IgG antibody levels to GGY: 21.9 ± 17.8 EU
[1]; protection experiment 1, weanling rats, two injections eight days apart, bled 14 days after onset (day 39 of life)
  levels of serum IgG antibody (in words): modest levels
[1]; protection experiment 2, 51 day old rats, 12 days after the second injection, p<0.002 vs sham
  IgG antibody levels to GGY: 108.0±4.0 EU
[1]; protection experiment 2, weanling rats, two injections 14 days apart, bled 26 days after onset (day 51 of life)
  positively responding rats (serum IgG): 8/11
[1]; protection experiment 2, weanling rats, two injections 14 days apart, bled day 51 of life
  levels of serum IgG antibody (in words): significantly elevated levels of serum IgG antibody
[2]; day 21 (one injection)
  rats with significant levels of salivary IgA antibody: 7/9
[2]; day 63 (three injections)
  rats with significant levels of salivary IgA antibody: 8/9
[2]; protection experiment 1, 39 day old rats
  Salivary IgA antibody levels to GGY: 5.0±2.0 EU
[2]; protection experiment 2, 51 day old rats
  Salivary IgA antibody levels to GGY: 11.7±4.8 EU
[3]
  reaction of serum IgG antibody with the CAT peptide: low but significant reaction
[4]
  reaction of serum IgG antibody with the AND peptide construct: significant reaction
[5]; 63 day sera from injected rats, AND p<0.01, FIG. 5
  inhibition of formation of water-insoluble glucan from sucrose by S. sobrinus GTF (in words): more variable
[5]; one rat serum, 63 day, relative to mean of sham sera
  inhibition of GTF activity: 35%
